Our source for the IC50 and Ki values is ChEMBL document CHEMBL1909046, “DrugMatrix in vitro pharmacology data”.

For orientation: IC50 means the concentration needed to halve the response being measured. In general, Ki refers to a measure of affinity in units of concentration, obtained from inhibition or displacement.

The target in one series is T1, Calcitonin receptor (Homo sapiens, UniProt P30988). Also: in other assays of this panel Not Active means under 50% inhibition at 10 µM.
T1 sequence (P30988 whole entry): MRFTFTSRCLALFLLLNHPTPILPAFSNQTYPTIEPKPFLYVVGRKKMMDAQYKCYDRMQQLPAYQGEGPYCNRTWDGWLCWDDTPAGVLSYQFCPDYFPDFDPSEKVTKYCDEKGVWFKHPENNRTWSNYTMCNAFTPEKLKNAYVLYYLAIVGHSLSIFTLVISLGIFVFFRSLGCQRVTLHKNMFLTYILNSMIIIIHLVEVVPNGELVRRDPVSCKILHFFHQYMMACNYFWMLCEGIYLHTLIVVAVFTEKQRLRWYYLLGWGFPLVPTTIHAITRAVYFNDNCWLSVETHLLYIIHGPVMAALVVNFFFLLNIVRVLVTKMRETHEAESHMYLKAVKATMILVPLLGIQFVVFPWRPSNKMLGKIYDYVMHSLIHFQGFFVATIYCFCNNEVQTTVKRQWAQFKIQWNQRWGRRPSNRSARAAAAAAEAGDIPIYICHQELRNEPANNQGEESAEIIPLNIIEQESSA
Type of series: cell membranes, Membrane. The conditions noted are these: t47d.

Series [1] deals with T2, Type-2 angiotensin II receptor (Homo sapiens, UniProt P50052).
T2 sequence (P50052 whole entry): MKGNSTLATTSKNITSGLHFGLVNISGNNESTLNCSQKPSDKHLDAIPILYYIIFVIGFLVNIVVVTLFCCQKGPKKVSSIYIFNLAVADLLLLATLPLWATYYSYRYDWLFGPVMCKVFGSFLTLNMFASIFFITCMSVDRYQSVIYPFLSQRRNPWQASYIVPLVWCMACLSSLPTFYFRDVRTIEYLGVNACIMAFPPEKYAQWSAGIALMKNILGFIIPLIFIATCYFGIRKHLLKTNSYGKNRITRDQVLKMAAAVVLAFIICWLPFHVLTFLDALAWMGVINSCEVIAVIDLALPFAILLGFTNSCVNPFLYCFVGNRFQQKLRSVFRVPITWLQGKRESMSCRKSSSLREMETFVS
Type of series: cell-based. Conditions: cho-k1.

For series [2], the target named is Beta-1 adrenergic receptor (Homo sapiens, UniProt P08588). Description: DRUGMATRIX: Adrenergic beta1 radioligand binding (ligand: [125I] Cyanopindolol). Type of series: cell membranes, CHO-K1, Membrane. Conditions: cho-k1; Not Active = under 50% inhibition at 10 µM.
The next series addresses Vasopressin V1a receptor (Homo sapiens, UniProt P37288). Type of series: cell membranes, Membrane. The conditions noted are these: hek293.
The target of the next series is Cannabinoid receptor 1 (Homo sapiens, UniProt P21554). Type of series: cell membranes, Membrane. Conditions: chem-1. Also: in other assays of this panel Not Active means under 50% inhibition at 10 µM.
The target in series [3] is 5-hydroxytryptamine receptor 1B (Rattus norvegicus, UniProt P28564). Type of series: cell membranes, Wistar, Cerebral cortex, Membrane. Conditions: for Ki: read-out: Ki. As to all read-outs here: in other assays of this panel Not Active means under 50% inhibition at 10 µM.
For another series, the target named is Cytochrome P450 3A4 (Homo sapiens, UniProt P08684). Conditions: bti-tn-5b1-4. Also: in other assays of this panel Not Active means under 50% inhibition at 10 µM.
Series [4] in a line: DRUGMATRIX: Tumor Necrosis Factor (TNF), Non-Selective radioligand binding (ligand: [125I] TNF-alpha). Conditions: u-937; Not Active = under 50% inhibition at 10 µM. Type of series: cell membranes, Membrane.

The structures appear in SMILES notation.

Beta-1 adrenergic receptor, sequence (P08588 whole entry): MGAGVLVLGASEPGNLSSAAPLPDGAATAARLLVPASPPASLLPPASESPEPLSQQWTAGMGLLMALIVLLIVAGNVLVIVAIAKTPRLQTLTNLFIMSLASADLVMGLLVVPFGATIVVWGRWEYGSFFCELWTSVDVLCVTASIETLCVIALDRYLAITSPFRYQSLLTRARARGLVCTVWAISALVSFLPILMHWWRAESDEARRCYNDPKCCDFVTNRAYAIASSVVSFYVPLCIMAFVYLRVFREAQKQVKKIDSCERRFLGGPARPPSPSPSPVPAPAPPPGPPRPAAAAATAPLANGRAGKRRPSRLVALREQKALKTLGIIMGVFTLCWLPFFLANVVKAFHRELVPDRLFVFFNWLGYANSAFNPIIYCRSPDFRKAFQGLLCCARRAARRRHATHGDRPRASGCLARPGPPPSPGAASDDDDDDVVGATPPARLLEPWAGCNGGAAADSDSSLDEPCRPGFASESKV
Vasopressin V1a receptor, sequence (P37288 whole entry): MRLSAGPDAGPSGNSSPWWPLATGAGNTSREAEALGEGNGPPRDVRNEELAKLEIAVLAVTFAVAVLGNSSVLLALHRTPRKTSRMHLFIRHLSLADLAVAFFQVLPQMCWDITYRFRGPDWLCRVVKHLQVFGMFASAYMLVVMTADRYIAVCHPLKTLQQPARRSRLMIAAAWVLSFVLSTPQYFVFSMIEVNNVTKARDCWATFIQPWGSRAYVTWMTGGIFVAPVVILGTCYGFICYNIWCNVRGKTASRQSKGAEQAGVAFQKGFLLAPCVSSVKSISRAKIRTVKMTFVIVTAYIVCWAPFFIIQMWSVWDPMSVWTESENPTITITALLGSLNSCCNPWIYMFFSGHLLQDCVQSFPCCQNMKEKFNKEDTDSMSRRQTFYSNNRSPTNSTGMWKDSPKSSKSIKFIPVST
Cannabinoid receptor 1, sequence (P21554 whole entry): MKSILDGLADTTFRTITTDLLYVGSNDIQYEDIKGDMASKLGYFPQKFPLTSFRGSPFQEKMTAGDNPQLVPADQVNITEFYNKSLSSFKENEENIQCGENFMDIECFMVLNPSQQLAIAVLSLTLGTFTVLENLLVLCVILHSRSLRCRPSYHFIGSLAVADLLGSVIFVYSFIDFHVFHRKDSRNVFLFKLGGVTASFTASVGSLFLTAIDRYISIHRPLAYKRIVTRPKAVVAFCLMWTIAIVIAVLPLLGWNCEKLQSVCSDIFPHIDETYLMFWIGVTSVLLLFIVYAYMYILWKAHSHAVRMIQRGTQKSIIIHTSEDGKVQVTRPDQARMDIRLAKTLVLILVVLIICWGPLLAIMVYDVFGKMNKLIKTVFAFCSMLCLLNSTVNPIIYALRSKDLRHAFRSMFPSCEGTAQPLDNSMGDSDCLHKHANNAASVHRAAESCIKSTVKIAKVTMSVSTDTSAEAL
5-hydroxytryptamine receptor 1B, sequence (P28564 whole entry): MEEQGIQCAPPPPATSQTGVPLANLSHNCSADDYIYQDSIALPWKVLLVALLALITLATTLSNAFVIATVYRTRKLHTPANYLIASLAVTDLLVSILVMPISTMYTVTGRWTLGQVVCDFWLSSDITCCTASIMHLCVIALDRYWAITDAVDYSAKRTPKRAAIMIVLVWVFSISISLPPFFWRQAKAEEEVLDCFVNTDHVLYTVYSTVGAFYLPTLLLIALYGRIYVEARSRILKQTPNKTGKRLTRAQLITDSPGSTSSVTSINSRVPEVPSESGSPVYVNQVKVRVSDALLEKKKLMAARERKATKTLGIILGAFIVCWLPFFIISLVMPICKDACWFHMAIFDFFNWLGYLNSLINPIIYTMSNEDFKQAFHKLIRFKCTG
Cytochrome P450 3A4, sequence (P08684 whole entry): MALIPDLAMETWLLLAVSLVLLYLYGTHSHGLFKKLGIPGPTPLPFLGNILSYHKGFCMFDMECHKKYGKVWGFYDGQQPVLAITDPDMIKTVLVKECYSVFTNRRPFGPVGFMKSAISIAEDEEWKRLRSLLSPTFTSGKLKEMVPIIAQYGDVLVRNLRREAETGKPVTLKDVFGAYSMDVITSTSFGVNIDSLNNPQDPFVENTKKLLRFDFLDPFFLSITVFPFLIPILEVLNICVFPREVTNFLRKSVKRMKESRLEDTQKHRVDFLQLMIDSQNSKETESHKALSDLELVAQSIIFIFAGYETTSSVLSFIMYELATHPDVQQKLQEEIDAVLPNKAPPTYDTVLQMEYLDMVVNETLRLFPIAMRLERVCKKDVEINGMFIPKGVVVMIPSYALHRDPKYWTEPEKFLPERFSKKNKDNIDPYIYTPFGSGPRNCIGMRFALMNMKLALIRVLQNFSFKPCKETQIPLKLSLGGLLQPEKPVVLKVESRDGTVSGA

Turning to `c1ccc(Nc2ccc(Nc3ccccc3)cc2)cc1`, the IC50 result (at Calcitonin receptor; in series [1]; in series [2]; against Vasopressin V1a receptor; against Cannabinoid receptor 1; in series [3]) was “Not Active” in each case. The IC50 result (at Cytochrome P450 3A4; in series [4]) was “Not Active” throughout. The Ki entry (on Cytochrome P450 3A4; in series [4]) was “Not Active” in each case.
For the compound `COc1cc2c3cc1Oc1cc(ccc1O)C[C@@H]1c4c(cc(OC)c(O)c4Oc4ccc(cc4)C[C@@H]3N(C)CC2)CC[N+]1(C)C.[Cl-]`, the 50% inhibitory concentration (IC50) entry (at Calcitonin receptor; in series [1]; in series [2]; against Vasopressin V1a receptor; on Cannabinoid receptor 1; in series [3]) was “Not Active” each time. Further, the IC50 entry (at Cytochrome P450 3A4; in series [4]) was “Not Active” each time. The Ki result (at Cytochrome P450 3A4; in series [4]) was “Not Active” in each case.
As to `NC(=O)N1c2ccccc2CCc2ccccc21`, the IC50 result (on Calcitonin receptor; in series [1]; in series [2]; at Vasopressin V1a receptor; against Cannabinoid receptor 1; in series [3]) was “Not Active” throughout. The IC50 entry (against Cytochrome P450 3A4; in series [4]) was “Not Active” in each case. Also, the Ki result (at Cytochrome P450 3A4; in series [4]) was “Not Active” in each case.
Consider `O=C1CC[C@@H](N2C(=O)c3ccccc3C2=O)C(=O)N1`, for which the half-inhibitory concentration (IC50) entry (on Calcitonin receptor; in series [1]; in series [2]; at Vasopressin V1a receptor; against Cannabinoid receptor 1; in series [3]) was “Not Active” in each case. Also, the IC50 entry (against Cytochrome P450 3A4; in series [4]) was “Not Active” in each case. Moreover, the Ki result (on Cytochrome P450 3A4; in series [4]) was “Not Active” throughout.
As for `Cc1onc(O)c1CC(N)C(=O)O` (racemic) [(R,S)-AMPA], the IC50 result (on Calcitonin receptor; in series [1]; in series [2]; on Vasopressin V1a receptor; against Cannabinoid receptor 1; in series [3]) was “Not Active” throughout. Also, the IC50 entry (at Cytochrome P450 3A4; in series [4]) was “Not Active” in each case. In addition, the inhibition constant (Ki) entry (at Cytochrome P450 3A4; in series [4]) was “Not Active” throughout.
With `Cc1ccc2cc3c(ccc4ccccc43)c3c2c1CC3` [3-METHYLCHOLANTHRENE], the IC50 result (at Calcitonin receptor; in series [1]; in series [2]; at Vasopressin V1a receptor; at Cannabinoid receptor 1; in series [3]) was “Not Active” in each case. For the same compound, the IC50 result (at Cytochrome P450 3A4; in series [4]) was “Not Active” in each case. Also, the Ki entry (at Cytochrome P450 3A4; in series [4]) was “Not Active” each time.
On to `CC[C@@]1(O)C[C@H](O[C@H]2C[C@H](N(C)C)[C@H](O[C@H]3C[C@H](O)[C@H](O[C@H]4CCC(=O)[C@H](C)O4)[C@H](C)O3)[C@H](C)O2)c2c(cc3c(c2O)C(=O)c2c(O)cccc2C3=O)[C@H]1C(=O)OC` [ACLARUBICIN], for which the half-inhibitory concentration (IC50) entry (on Calcitonin receptor; in series [1]; in series [2]; against Vasopressin V1a receptor; against Cannabinoid receptor 1; in series [3]) was “Not Active” each time. Moreover, the IC50 result (against Cytochrome P450 3A4; in series [4]) was “Not Active” each time. For the same compound, the Ki result (on Cytochrome P450 3A4; in series [4]) was “Not Active” in each case.
Regarding `Nc1nc2c(ncn2COCCO)c(=O)[nH]1` [ACYCLOVIR], the IC50 result (on Calcitonin receptor; in series [1]; in series [2]; against Vasopressin V1a receptor; against Cannabinoid receptor 1; in series [3]) was “Not Active” in each case. Also, the IC50 entry (against Cytochrome P450 3A4; in series [4]) was “Not Active” in each case. For the same compound, the Ki result (on Cytochrome P450 3A4; in series [4]) was “Not Active” throughout.
In the case of `Cc1cc(C(C#N)c2ccc(Cl)cc2)c(Cl)cc1NC(=O)c1cc(I)cc(I)c1O` (configuration not stated) [CLOSANTEL], the IC50 result (at Calcitonin receptor; in series [1]; in series [2]; against Vasopressin V1a receptor; at Cannabinoid receptor 1; in series [3]) was “Not Active” each time. In addition, the IC50 entry in series [4] is on record as “Not Active”. Moreover, the Ki result in series [4] is given as “Not Active”.
Take `CC(C)[C@@]1(NC(=O)[C@@H]2C[C@@H]3c4cccc5[nH]cc(c45)C[C@H]3N(C)C2)O[C@@]2(O)[C@@H]3CCCN3C(=O)[C@H](Cc3ccccc3)N2C1=O.CS(=O)(=O)O` [DIHYDROERGOCRISTINE MESYLATE]: the IC50 entry was “Not Active” at Calcitonin receptor; “Not Active” in series [1]; “Not Active” in series [2]; “Not Active” at Vasopressin V1a receptor; “Not Active” against Cannabinoid receptor 1; 24 nM in series [3] (read-out: IC50). The IC50 entry in series [4] is given as “Not Active”. Further, the Ki in series [3] was 11 nM; in series [4] it was “Not Active”.
Regarding `CC(=O)O[C@@]12CO[C@@H]1C[C@H](O)[C@@]1(C)C(=O)[C@H](O)C3=C(C)[C@@H](OC(=O)[C@H](O)[C@@H](NC(=O)OC(C)(C)C)c4ccccc4)C[C@@](O)([C@@H](OC(=O)c4ccccc4)[C@H]21)C3(C)C.O.O.O` [DOCETAXEL], the IC50 result (at Calcitonin receptor; in series [1]; in series [2]; against Vasopressin V1a receptor; at Cannabinoid receptor 1; in series [3]) was “Not Active” in each case. Also, the IC50 entry in series [4] was “Not Active”. Besides, the Ki entry in series [4] is “Not Active”.
Consider `CC(C)[C@H]1C(=O)N2CCC[C@H]2[C@]2(O)O[C@](NC(=O)[C@@H]3C=C4c5cccc6[nH]cc(c56)C[C@H]4N(C)C3)(C(C)C)C(=O)N12` [ERGOCORNINE], for which the IC50 result is “Not Active” at Calcitonin receptor; “Not Active” in series [1]; “Not Active” in series [2]; “Not Active” at Vasopressin V1a receptor; “Not Active” on Cannabinoid receptor 1; 30 nM in series [3] (read-out: IC50). For the same compound, the IC50 entry in series [4] was “Not Active”. Further, the inhibition constant Ki was 19 nM in series [3] and “Not Active” in series [4].
On to `C[C@]12CC[C@@H]3c4ccc(O)cc4CC[C@H]3[C@@H]1CCC2=O` [ESTRONE], for which the half-maximal inhibitory concentration (IC50) entry (on Calcitonin receptor; in series [1]; in series [2]; at Vasopressin V1a receptor; on Cannabinoid receptor 1; in series [3]) was “Not Active” each time. The IC50 entry in series [4] is on record as “Not Active”. Besides, in series [4], the Ki result is “Not Active”.
In the case of `N=C(N)NCCN1CCCCCCC1` [GUANETHIDINE], the IC50 result (on Calcitonin receptor; in series [1]; in series [2]; on Vasopressin V1a receptor; on Cannabinoid receptor 1; in series [3]) was “Not Active” each time. Further, the IC50 result in series [4] was “Not Active”. In series [4], the Ki entry is reported as “Not Active”.
`CCC(C)n1ncn(-c2ccc(N3CCN(c4ccc(OCC5COC(Cn6cncn6)(c6ccc(Cl)cc6Cl)O5)cc4)CC3)cc2)c1=O` (configuration not stated) [ITRACONAZOLE]: the IC50 result (on Calcitonin receptor; in series [1]; in series [2]; against Vasopressin V1a receptor; at Cannabinoid receptor 1; in series [3]) was “Not Active” throughout. The IC50 entry in series [4] is reported as “Not Active”. Further, the Ki result in series [4] was “Not Active”.
Take `CC1(C)S[C@@H]2[C@H](NC(=O)Cc3ccccc3)C(=O)N2[C@H]1C(=O)O` [PENICILLIN G]: the IC50 result (on Calcitonin receptor; in series [1]; in series [2]; on Vasopressin V1a receptor; against Cannabinoid receptor 1; in series [3]) was “Not Active” throughout. Further, in series [4], the IC50 entry was “Not Active”. Moreover, the Ki entry in series [4] is “Not Active”.
On to `Cc1ccc(N(CC2=NCCN2)c2cccc(O)c2)cc1` [PHENTOLAMINE], for which the IC50 result (at Calcitonin receptor; in series [1]; in series [2]; at Vasopressin V1a receptor; at Cannabinoid receptor 1; in series [3]) was “Not Active” each time. In addition, in series [4], the IC50 entry was “Not Active”. For the same compound, the Ki result in series [4] was “Not Active”.
On to `CN(C)CCCN1c2ccccc2Sc2ccccc21` [PROMAZINE], for which the IC50 result (at Calcitonin receptor; in series [1]; in series [2]; against Vasopressin V1a receptor; against Cannabinoid receptor 1; in series [3]) was “Not Active” throughout. In addition, in series [4], the IC50 result is given as “Not Active”. Also, the Ki result in series [4] is reported as “Not Active”.
